SMILES strings stand for the structures.

This experiment has as its target T1, AvrB (Pseudomonas savastanoi, UniProt P13835).
T1 construct: recombinant in E. coli BL21 Rosetta from pProEX-HTa; N-terminal His tag removed with TEV protease; residues 16 to 319 modelled in the ADP complex; 36 kDa
The experiment can be described thus: X-ray crystallography, crystal soak. The note with it: 5 mM nucleotide soak about 1 d, pH 7.5, with and without 5 mM MgCl2; lower lobe pocket (Y65, R99, R266). The format is binding.

T1 sequence (P13835 whole entry, the tested form may be a part): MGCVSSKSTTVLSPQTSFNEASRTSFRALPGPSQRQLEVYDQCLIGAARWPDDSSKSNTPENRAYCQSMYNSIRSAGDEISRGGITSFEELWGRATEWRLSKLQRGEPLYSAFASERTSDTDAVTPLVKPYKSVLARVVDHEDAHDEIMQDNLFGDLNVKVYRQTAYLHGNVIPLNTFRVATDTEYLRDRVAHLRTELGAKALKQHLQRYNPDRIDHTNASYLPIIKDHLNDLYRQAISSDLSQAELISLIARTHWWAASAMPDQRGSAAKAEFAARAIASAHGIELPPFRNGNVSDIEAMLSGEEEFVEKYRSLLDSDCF

Regarding `Nc1ncnc2c1ncn2[C@@H]1O[C@H](COP(=O)(O)OP(=O)(O)O)[C@@H](O)[C@H]1O` [ADP], the “X-ray crystallography, crystal soak” value is listed as “We found that crystallized AvrB could bind ADP within the lower lobe pocket”.

The record behind these values is PMC1839166, “Type III Effector Activation via Nucleotide Binding, Phosphorylation, and Host Target Interaction” (PLoS Pathogens, 2007).
